These results are taken from ChEMBL document CHEMBL5154724, “Cathepsin D inhibitors based on tasiamide B derivatives with cell membrane permeability” (Bioorg Med Chem, 2022).

Molecules are shown by their SMILES. Structures can show the parent of a compound that is named as a salt. *1 amine or outer side, *2 acyl side, *3 side chain or, on linkers, in order; H or OH if unused. Where a SMILES comes first, the peptide text is derived from it. [ ]: non-standard residue; d: D form. The star is where a group is joined. Ahppa(3S,4S) = O=C(C[C@H](O)[C@H](Cc1ccccc1)N[*:1])[*:2]; dNMeF = CN[C@H](Cc1ccccc1)C(=O)O; NMeQ = CN[C@@H](CCC(N)=O)C(=O)O; Cbz = O=C(OCc1ccccc1)*

One series addresses T1, Cathepsin E (Homo sapiens, UniProt P14091).
T1 sequence (P14091 whole entry): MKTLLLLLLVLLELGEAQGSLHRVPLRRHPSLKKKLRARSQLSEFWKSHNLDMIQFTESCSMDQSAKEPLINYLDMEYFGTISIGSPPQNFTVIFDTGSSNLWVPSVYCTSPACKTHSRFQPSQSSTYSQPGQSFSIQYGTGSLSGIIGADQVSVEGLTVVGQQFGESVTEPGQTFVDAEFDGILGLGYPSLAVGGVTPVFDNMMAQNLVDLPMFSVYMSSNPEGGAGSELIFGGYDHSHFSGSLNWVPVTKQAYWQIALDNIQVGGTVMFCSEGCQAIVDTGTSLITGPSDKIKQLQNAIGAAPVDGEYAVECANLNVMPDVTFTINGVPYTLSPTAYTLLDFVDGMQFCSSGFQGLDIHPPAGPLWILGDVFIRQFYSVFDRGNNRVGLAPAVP
The experiment in a line: Inhibition of Cathepsin E (unknown origin) using Mca-Gly-Lys-Pro-Ile-Leu-Phe-Phe-Arg-Leu-Lys-(Dnp)-D-Arg-NH2 as substrate incubated for 120 mins by fluorescence assay.

Another series concerns the target Cathepsin D (Homo sapiens, UniProt P07339). The experiment in a line: Inhibition of recombinant human liver Cathepsin D using Mca-Gly-Lys-Pro-Ile-Leu-Phe-Phe-Arg-Leu-Lys-(Dnp)-D-Arg-NH2 as substrate incubated for 120 mins by fluorescence assay.
A short description of series [1]: Drug uptake in human MDA-MB-231 cells assessed as increase in co-localization with lysosomal at 10 uM after 16 hrs by LTG/Hoechst 33258 staining based confocal laser scanning microscopy. Format: ADME, cell-based. The settings on record: mda-mb-231, 16 h.
A short description of series [2]: Drug uptake in human MDA-MB-231 cells assessed as increase in internalization at 10 uM after 3 to 24 hrs by LTG/Hoechst 33258 staining based confocal laser scanning microscopy. Format: ADME, cell-based. The settings on record: mda-mb-231, 10 µM, time 3-24 hrs.
In another series the target is Beta-secretase 1 (Homo sapiens, UniProt P56817). The experiment in a line: Inhibition of BACE1 (unknown origin) using Mca-Ser-Glu-Val-Asn-Leu-Asp-Ala-Glu-Phe-Arg-Lys(Dnp)-Arg-Arg-NH2 as substrate incubated for 120 mins by fluorescence assay.
Another series concerns HepG2. The experiment in a line: Antiproliferative activity against human HepG2 cells assessed as reduction in cell viability after 72 hrs by CCK-8 assay. Format: functional, cell-based. The settings on record: HepG2, 72 h. For orientation: Tetrazolium assays rely on reduction of a dye to a coloured formazan, in cell work by metabolically active cells.
Series [3] has as its system MDA-MB-231. The experiment in a line: Antiproliferative activity against human MDA-MB-231 cells assessed as reduction in cell viability after 72 hrs by CCK-8 assay. The class given is functional, cell-based. The settings on record: MDA-MB-231, 72 h.
Series [4] is described as follows: Drug uptake in human MDA-MB-231 cells assessed as increase in internalization at 10 uM after 16 to 24 hrs by LTG/Hoechst 33258 staining based confocal laser scanning microscopy. The settings on record: mda-mb-231, 10 µM, time 16-24 hrs. Format: ADME, cell-based.
The test system of series [5] is MDA-MB-231. The experiment in a line: Antiproliferative activity against human MDA-MB-231 cells assessed as reduction in cell viability at 10 uM after 72 hrs by CCK-8 assay relative to control. Format: functional.
The test system of a further series is A549. The experiment in a line: Antiproliferative activity against human A549 cells assessed as reduction in cell viability after 72 hrs by CCK-8 assay. Format: functional, cell-based. Conditions: A549, 72 h; call rule not given here.

In general, IC50 refers to the point on the concentration scale where inhibition reaches its midpoint. The term inhibition denotes the relative decrease from the control value, in per cent.

Sequence of Cathepsin D (P07339 65-162 limits assumed): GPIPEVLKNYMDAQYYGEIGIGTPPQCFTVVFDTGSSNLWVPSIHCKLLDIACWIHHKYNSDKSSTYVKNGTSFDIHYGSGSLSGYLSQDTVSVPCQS
Sequence of Cathepsin D (P07339 169-412 limits assumed): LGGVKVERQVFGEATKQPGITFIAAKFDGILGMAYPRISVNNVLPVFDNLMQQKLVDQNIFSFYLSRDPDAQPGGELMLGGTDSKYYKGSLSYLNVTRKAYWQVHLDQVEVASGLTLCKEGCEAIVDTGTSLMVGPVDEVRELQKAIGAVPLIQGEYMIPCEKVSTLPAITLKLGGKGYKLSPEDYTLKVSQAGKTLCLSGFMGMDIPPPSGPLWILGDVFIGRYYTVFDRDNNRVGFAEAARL
Sequence of Beta-secretase 1 (P56817 whole entry): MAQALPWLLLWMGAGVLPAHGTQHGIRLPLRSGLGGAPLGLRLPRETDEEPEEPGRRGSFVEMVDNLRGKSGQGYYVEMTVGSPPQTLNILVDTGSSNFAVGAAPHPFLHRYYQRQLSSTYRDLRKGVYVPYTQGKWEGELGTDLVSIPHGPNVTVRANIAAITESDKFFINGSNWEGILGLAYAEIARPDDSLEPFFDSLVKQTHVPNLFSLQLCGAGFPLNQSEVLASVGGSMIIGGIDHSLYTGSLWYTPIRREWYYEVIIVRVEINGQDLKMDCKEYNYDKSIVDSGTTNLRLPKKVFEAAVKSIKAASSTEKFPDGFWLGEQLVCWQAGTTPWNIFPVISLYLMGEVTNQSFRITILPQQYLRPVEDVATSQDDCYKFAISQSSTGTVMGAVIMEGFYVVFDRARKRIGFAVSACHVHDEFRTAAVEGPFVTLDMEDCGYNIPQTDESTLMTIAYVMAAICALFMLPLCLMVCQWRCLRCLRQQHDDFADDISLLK

Turning to `CC(C)C[C@H](NC(=O)C[C@H](O)[C@H](Cc1ccccc1)NC(=O)[C@H](CCC(N)=O)N(C)C(=O)[C@@H](NC(=O)OCc1ccccc1)C(C)C)C(=O)N[C@@H](C)C(=O)N(C)[C@H](Cc1ccccc1)C(=O)N1CCC[C@H]1C(=O)O`, the half-maximal inhibitory concentration (IC50) on Cathepsin E was 0.12 µM; at Cathepsin D, 0.00489 µM.
As for `C#CCNC(=O)[C@H](CCCCNC(=O)[C@H](CCCCN)NC(=O)[C@H](CCCCN)NC(=O)[C@H](CCC(N)=O)NC(=O)[C@H](CO)NC(=O)CCN1c2ccccc2C(C)(C)[C@]12CCc1cc([N+](=O)[O-])ccc1O2)NC(=O)[C@H](CCCCN)NC(=O)[C@H](CCCCN)NC(=O)C(CCC(N)=O)NC(=O)[C@H](CO)NC(=O)CCN1c2ccccc2C(C)(C)[C@]12CCc1cc([N+](=O)[O-])ccc1O2` (some centres not stated), the Drug uptake entry in series [1] and in series [2] was “Active” throughout.
Regarding `CC(C)C[C@H](NC(=O)C[C@H](O)[C@H](Cc1ccccc1)NC(=O)[C@H](CCC(N)=O)N(C)C(=O)[C@@H](NC(=O)OCc1ccccc1)C(C)C)C(=O)N[C@@H](C)C(=O)N(C)[C@H](Cc1ccccc1)C(=O)N1CCC[C@H]1C(=O)NCCOCCOCCn1cc(CNC(=O)[C@H](CCCCNC(=O)[C@H](CCCCN)NC(=O)[C@H](CCCCN)NC(=O)[C@H](CCC(N)=O)NC(=O)[C@H](CO)NC(=O)CCN2c3ccccc3C(C)(C)[C@]23C=Cc2cc([N+](=O)[O-])ccc2O3)NC(=O)[C@H](CCCCN)NC(=O)[C@H](CCCCN)NC(=O)C(CCC(N)=O)NC(=O)[C@H](CO)NC(=O)CCN2c3ccccc3C(C)(C)[C@]23CCc2cc([N+](=O)[O-])ccc2O3)nn1` (some centres not stated), the concentration for half-maximal inhibition (IC50) is 0.1 µM against Cathepsin E; 0.041 µM at Cathepsin D; 1.03 µM on Beta-secretase 1; more than 10 µM in the series with HepG2; more than 10 µM in the series with MDA-MB-231 [3]; more than 10 µM in the series on A549. Besides, in [4], the Drug uptake result is on record as “Active”. The inhibition at 10 µM in the series with MDA-MB-231 [5] worked out at 49%.
Turning to `CC(C)C[C@H](NC(=O)C[C@H](O)[C@H](Cc1ccccc1)NC(=O)[C@H](CCC(N)=O)N(C)C(=O)[C@@H](NC(=O)OCc1ccccc1)C(C)C)C(=O)N[C@@H](C)C(=O)N(C)[C@H](Cc1ccc(O)cc1)C(=O)N1CCC[C@H]1C(=O)NCCOCCOCCn1cc(CNC(=O)[C@H](CCCCNC(=O)[C@H](CCCCN)NC(=O)[C@H](CCCCN)NC(=O)[C@H](CCC(N)=O)NC(=O)[C@H](CO)NC(=O)CCN2c3ccccc3C(C)(C)[C@]23C=Cc2cc([N+](=O)[O-])ccc2O3)NC(=O)[C@H](CCCCN)NC(=O)[C@H](CCCCN)NC(=O)C(CCC(N)=O)NC(=O)[C@H](CO)NC(=O)CCN2c3ccccc3C(C)(C)[C@]23CCc2cc([N+](=O)[O-])ccc2O3)nn1` (some centres not stated), the IC50 against Cathepsin E is 0.012 µM; at Cathepsin D, 0.022 µM; at Beta-secretase 1 it was 0.828 µM; with HepG2 it was more than 10 µM; in the series on MDA-MB-231 [3], 9.1 µM; with A549, more than 10 µM. In addition, the Drug uptake entry in [4] was “Active”. For the same compound, the inhibition at 10 µM with MDA-MB-231 [5] was determined as 52%.
As for `COC(=O)[C@@H]1CCCN1C(=O)[C@@H](Cc1ccc(OC(C)(C)C)cc1)N(C)C(=O)[C@H](C)NC(=O)[C@H](CC(C)C)NC(=O)C[C@H](O)[C@H](Cc1ccccc1)NC(=O)[C@H](CCC(N)=O)N(C)C(=O)[C@@H](NC(=O)OCc1ccccc1)C(C)C`, the IC50 against Cathepsin E was 0.105 µM; on Cathepsin D, 0.018 µM.
For the compound `CC(C)C[C@H](NC(=O)C[C@H](O)[C@H](Cc1ccccc1)NC(=O)[C@H](CCC(N)=O)N(C)C(=O)[C@@H](NC(=O)OCc1ccccc1)C(C)C)C(=O)N[C@@H](C)C(=O)N(C)[C@H](Cc1ccc(OC(C)(C)C)cc1)C(=O)N1CCC[C@H]1C(=O)O`, the figures for the 50% inhibitory concentration (IC50) against Cathepsin E and on Cathepsin D were 0.187 µM and 0.019 µM, respectively.
Regarding `COC(=O)[C@@H]1CCCN1C(=O)[C@@H](Cc1ccc(O)cc1)N(C)C(=O)[C@H](C)NC(=O)[C@H](CC(C)C)NC(=O)C[C@H](O)[C@H](Cc1ccccc1)NC(=O)[C@H](CCC(N)=O)N(C)C(=O)[C@@H](NC(=O)OCc1ccccc1)C(C)C`, the half-maximal inhibitory concentration (IC50) was 0.104 µM at Cathepsin E; 0.000178 µM at Cathepsin D; more than 10 µM with HepG2; more than 10 µM in the series on MDA-MB-231 [3]; more than 10 µM with A549. Moreover, in the series on MDA-MB-231 [5], the inhibition at 10 µM came out at 12%.
Turning to `COC(=O)[C@@H]1CCCN1C(=O)[C@@H](Cc1ccccc1)N(C)C(=O)[C@H](C)NC(=O)[C@H](CC(C)C)NC(=O)C[C@H](O)[C@H](Cc1ccccc1)NC(=O)[C@H](CCC(N)=O)N(C)C(=O)[C@@H](NC(=O)OCc1ccccc1)C(C)C` (Cbz-V[NMeQ][Ahppa(3S,4S)]LA[dNMeF]P-OMe), the IC50 in the series with HepG2, with MDA-MB-231 [3] and with A549 was more than 10 µM in each case. For the same compound, the inhibition at 10 µM with MDA-MB-231 [5] was 14%.
Regarding `COc1cccc2c1C(=O)c1c(O)c3c(c(O)c1C2=O)C[C@@](O)(C(=O)CO)C[C@@H]3O[C@H]1C[C@H](N)[C@H](O)[C@H](C)O1` [DOXORUBICIN HYDROCHLORIDE], the half-maximal inhibitory concentration (IC50) with MDA-MB-231 [3] stood at 0.37 µM; in the series on A549 it was 0.4 µM. Moreover, in the series on MDA-MB-231 [5], the inhibition at 10 µM was 70%.
